Values after ≈ are worked out from the molar mass of the structure shown.
conditions: buffer; pH 7.4; 200.0 µM

solubility kinetic [µg/mL] | SMILES
> 36.6 | O=C(O)Cn1cnc2c(oc3ccccc32)c1=O
43.5 (≈ 143 µM) | O=C(NCCN1CCOCC1)c1ccc(Cl)c(Cl)c1
3.1 (≈ 12.2 µM) | Cc1ccc(C(=O)NC2=NCCS2)cc1Cl
10.2 (≈ 32.4 µM) | CC(=O)NC(=S)Nc1ccc(NC(=O)c2cccnc2)cc1
> 42.2 | Cc1ccc(C(=O)N2CCN(c3ccccn3)CC2)cc1
27.2 (≈ 89.1 µM) | CCc1noc(C)c1C(=O)Nc1nc2ccc(F)cc2s1
3.7 (≈ 9.86 µM) | O=C(COC(=O)/C=C/c1ccc([N+](=O)[O-])cc1)NC(=O)NC1CCCCC1
> 45.3 | O=C(NS(=O)(=O)c1ccc(Cl)s1)c1ccccc1
> 40.3 | O=C(NCCN1CCOCC1)c1ccccc1Cl
> 48.2 | CC(=O)NCCc1nc2ccccc2n1Cc1cc(C)ccc1C
20.6 (≈ 66.6 µM) | Cc1[nH]c2ccccc2c1/C=C(\C#N)C(=O)NCC1CCCO1 (stereo not drawn)
35.1 (≈ 129 µM) | N#Cc1ccccc1NC(=S)Nc1ccc(F)cc1
> 54.4 | Cn1c(=O)oc2cc(S(=O)(=O)NCc3ccc(C(=O)O)cc3)ccc21
43.5 (≈ 132 µM) | O=c1[nH]cnc2c1C(c1ccc(Cl)cc1)c1c(nc[nH]c1=O)O2
47.4 (≈ 146 µM) | COCCCNc1nc(N)c([N+](=O)[O-])c(N2CCCCCC2)n1
5.3 (≈ 18.1 µM) | Cc1ccccc1NC(=O)Cc1cccc(C(F)(F)F)c1
1.3 (≈ 4.54 µM) | CCOC(=O)C1=C(C)NC(=O)NC1/C=C\c1ccccc1 (stereo not drawn)
2.1 (≈ 7.71 µM) | COc1ccc(NC(=O)c2ccccc2)c([N+](=O)[O-])c1
> 49.1 | O=S(=O)(Nc1ccc2c(c1)OCCO2)c1ccc(F)c(F)c1
> 49.7 | CCOC(=O)C1CCN(C(=O)/C=C/c2ccc3c(c2)OCO3)CC1
> 30 | C/C(=N/O)c1no[n+]([O-])c1/C(C)=N\O
> 51.4 | CCOn1c(=O)c(-c2cc(OC)ccc2OC)[n+]([O-])c2ccccc21
> 50.2 | CC(=O)Nc1ccc(S(=O)(=O)Nc2ccc3c(c2)OCO3)cc1
15.2 (≈ 46.7 µM) | CN(C)C=NC(=O)c1[nH]c2ccc(Cl)cc2c1-c1ccccc1

solubility kinetic [µg/mL] | SMILES
> 39.2 | O=C(Cn1ccc([N+](=O)[O-])n1)NCc1cccnc1
35.3 (≈ 121 µM) | COC(=O)c1cnc(N2CCOCC2)nc1C(F)(F)F
> 52.9 | COc1ccc(C(=O)N2CCC(C(=O)Nc3ccc(C)cc3)CC2)cc1
63.2 (≈ 144 µM) | O=C(NCCN1CCOCC1)c1ccc(Cl)c(S(=O)(=O)NCc2ccccc2)c1
< 0.6 | Cc1ccc(C2=N/C(=C\c3cccc(F)c3)C(=O)O2)cc1
44.3 (≈ 117 µM) | CN(C)CCCNC(NC(=O)/C=C/c1ccccc1)C(Cl)(Cl)Cl (stereo not drawn)
< 0.4 | Cc1ccc(NC(=O)c2ccc(OCc3c(C)noc3C)cc2)cc1
> 44.3 | Cc1csc(NC(=O)Cn2nc(C)c([N+](=O)[O-])c2C)n1
9.2 (≈ 30.3 µM) | O=S(=O)(Nc1ccccn1)c1cc(Cl)ccc1Cl
> 53.5 | CC(C)(C)c1ccc(Oc2ccc(NC(=O)CCCC(=O)O)cn2)cc1
> 43 | CC1CC(C)CN(C(=O)CSc2nnc(N)s2)C1 (stereo not drawn)
> 35.8 | Cc1cc(C)c(NC(=S)NCCO)c(C)c1
2 (≈ 6.24 µM) | COc1ccc(NC(=O)/C=C/c2ccc(OC(F)F)cc2)cn1
43.1 (≈ 148 µM) | CC1CN(C(=O)Cn2c(=O)oc3ccccc32)CC(C)O1 (stereo not drawn)
49.8 (≈ 131 µM) | CCN1CCN(C(=S)NC(CC(=O)c2ccccc2)c2ccccc2)CC1 (stereo not drawn)
> 58.9 | Cc1cc(C)n2c(SCC(=O)Nc3cccc(S(N)(=O)=O)c3)nnc2n1
> 51.6 | O=C(O)CSC1CC(=O)N(c2ccc(Br)cc2)C1=O (stereo not drawn)
38.5 (≈ 104 µM) | CN1CCN(C(=O)C2CCN(S(=O)(=O)c3ccc(F)cc3)CC2)CC1
35.5 (≈ 123 µM) | c1ccc(-n2cnc3cc(NCc4ccco4)ccc32)cc1
5.1 (≈ 19.8 µM) | Cc1cc2c(cc1C)C(c1ccsc1)CC(=O)N2 (stereo not drawn)
16.7 (≈ 52.9 µM) | O=C(Cc1c(F)cccc1Cl)Nc1ncc([N+](=O)[O-])s1
2.3 (≈ 7.51 µM) | Cc1ccc(-c2onc3ccc(C(=O)/C=C/N(C)C)cc23)cc1
37.9 (≈ 133 µM) | Cc1cc(C)nc(SCc2cn3c(C)cccc3n2)n1
1.9 (≈ 5.89 µM) | Cc1cccc(CCNC(=O)c2oc3c(C)c(C)ccc3c2C)n1

solubility kinetic [µg/mL] | SMILES
6.8 (≈ 27.9 µM) | Cc1cc(C)cc(NC(=O)C2CC3CCC2C3)c1 (stereo not drawn)
> 47.8 | Cc1ccc([N+](=O)[O-])c(OCC(O)CNC(C)(C)C)c1.Cl (stereo not drawn)
38.9 (≈ 109 µM) | CCCN(CC(=O)Nc1ccccc1OC)C(=O)Cc1ccccc1F
< 0.3 | N#C/C(=C(/O)c1ccc(C(=O)c2ccccc2)cc1)c1nc2ccccc2[nH]1
45.4 | CN1CCCC(OC(=O)c2cc(F)c(F)c(F)c2F)C1.Cl (stereo not drawn)
< 0.2 | Cc1c(Cl)cccc1NC(=O)Nc1cc(C(C)(C)C)on1
> 45.8 | COc1ccc(CCNC(=O)Cc2cccs2)cc1OC
> 45.4 | CC(=O)c1c(C)[nH]c(=S)c(C#N)c1-c1ccc(Cl)cc1
9.1 (≈ 25.8 µM) | CCOC(=O)c1sc(=S)n(C)c1NC(=O)c1ccc(OC)cc1
32.1 (≈ 118 µM) | CC(SCc1ccccc1)C(=O)Nc1ccccc1 (stereo not drawn)
0.9 (≈ 2.78 µM) | CC(=O)c1cccc(Nc2c([N+](=O)[O-])c(=O)oc3ccccc23)c1
51.3 (≈ 145 µM) | Cn1c(=O)c2c(O)c(C=NCc3ccccc3)c(=O)n(C)c2n(C)c1=O
> 53.9 | COc1cc(/C=C/C(=O)OCC(=O)NCc2ccc(F)cc2)ccc1O
> 41.6 | COc1ccc(CCC(=O)NC(C)C2CCCO2)cc1 (stereo not drawn)
> 57.4 | CCOc1ccc(N2CC(C(=O)Nc3ccc4c(c3)OCCO4)CC2=O)cc1 (stereo not drawn)
> 37.8 | O=[N+]([O-])c1ccc(C(O)CN2CCOCC2)cc1 (stereo not drawn)
51.5 (≈ 98.9 µM) | O=C(Nc1ccc(S(=O)(=O)NC2=NCCCCC2)cc1)c1cccc(S(=O)(=O)N2CCOCC2)c1
> 49.1 | O=C(CSc1ncccn1)N1CCC(Cc2ccccc2)CC1
7 (≈ 16.3 µM) | CCN(CC(=O)Nc1ccc2c(c1)OCCO2)CC(=O)Nc1ccc(C)c([N+](=O)[O-])c1
40.9 (≈ 149 µM) | COCCCNC(=S)Nc1cccc2ncccc12
> 44.1 | COc1ccc(S(=O)(=O)Nc2cccnc2)cc1OC
26.5 (≈ 146 µM) | O=C(NCc1cccs1)C1CC1
< 0.3 | Brc1ccc(CNc2ccc3ncccc3c2)cc1
35 (≈ 108 µM) | COc1ccc(S(=O)(=O)N(C)C(C)CCc2ccco2)cc1 (stereo not drawn)

solubility kinetic [µg/mL] | SMILES
5.3 (≈ 10.7 µM) | Cc1ccc(S(=O)(=O)N2CCOCC2)cc1NC(=O)COC(=O)c1ccc(Br)cc1
> 43.3 | CN(C)/C(=N\S(=O)(=O)c1ccccc1)c1ccccc1
> 47.3 | CC(C)(C)C(=O)N1CCN(c2ncccc2C(F)(F)F)CC1
> 50.6 | Cn1c(N)c(C(=O)COC(=O)CCC2CCCC2)c(=O)n(C)c1=O
32.6 (≈ 135 µM) | CN(C)C(CNc1ncccn1)c1ccccc1 (stereo not drawn)
0.6 (≈ 1.84 µM) | CCN(CC)C(=O)CSc1nc(-c2ccccc2)ccc1C#N
> 46.6 | Cc1ccccc1CNS(=O)(=O)c1csc(C(N)=O)c1
> 44.8 | COc1ccccc1NC(=O)NC1(C)CCS(=O)(=O)C1 (stereo not drawn)
> 33.3 | CC(=O)Nc1nnc(S(N)(=O)=O)s1
< 0.7 | CN(Cc1ccc(F)cc1)C(=O)COc1ccc2ccccc2c1
1.4 (≈ 4.34 µM) | Cc1cc(NCCCOC(C)C)n2c(nc3ccccc32)c1C#N
0.8 (≈ 2.59 µM) | CCc1ccc2[nH]c(C(=O)Nc3ccc4c(c3)OCO4)cc2c1
> 44 | CC(C)(C)n1cnc2cc(NC(=O)c3ccccc3)ccc21
14.9 (≈ 43.6 µM) | Cc1cc(C(=O)COC(=O)C2=COCCO2)c(C)n1-c1ccccc1
5.4 (≈ 16.6 µM) | Cc1ccc(S(=O)(=O)CC(=O)Nc2ccc(Cl)cn2)cc1
1.2 (≈ 4.06 µM) | CC1CCc2sc(C(=O)OCC(=O)NC(C)C)cc2C1 (stereo not drawn)
< 0.3 | CCOC(=O)c1sc(Nc2ccc(F)cc2)nc1C
31.7 (≈ 145 µM) | O=C(CCCO)NC1Cc2ccccc2C1
41.4 (≈ 138 µM) | CCc1ccccc1NC(=O)COc1ccc2c(c1)OCO2
8 (≈ 33.7 µM) | CC(=O)c1cnc(-c2ccccc2Cl)s1
< 0.3 | Cc1ccc2cccc(NS(=O)(=O)c3ccccc3)c2n1
> 51.5 | O=C(NNC(=O)C12CC3CC(CC(C3)C1)C2)c1cccc([N+](=O)[O-])c1
44.6 (≈ 147 µM) | CN(C(=O)CO/N=C/c1ccc(Cl)cc1)c1ccccc1
> 43.3 | CCN(C(=O)CSc1cccc[n+]1[O-])c1ccccc1

solubility kinetic [µg/mL] | SMILES
> 38 | CC(=O)Nc1nc2c(s1)C(=O)NCC(C)(C)C2
50.3 (≈ 144 µM) | Cc1ncoc1C(=O)N1CCCC(C(=O)c2cccc3ccccc23)C1 (stereo not drawn)
> 39.2 | CN1CCN(C(=O)c2cc3cc(F)ccc3[nH]2)CC1
1 (≈ 2.73 µM) | O=C1CCC(=O)N1c1ccc(-c2nc3sc4c(c3c(=O)o2)CCC4)cc1
> 51.2 | COc1ccc(C(CC(=O)O)N2Cc3ccccc3C2=O)cc1OC (stereo not drawn)
3.4 (≈ 11.6 µM) | Fc1ccc2[nH]c3c(NCc4ccccc4)ncnc3c2c1
15.1 (≈ 54.4 µM) | CCN(CC)C(=O)CSc1nc(C)cc(C)c1C#N
> 25.5 | O=C(O)CSc1ncccn1
> 38.9 | O=C1C2C3CCC(O3)C2C(=O)N1c1cccc(O)c1 (stereo not drawn)
> 45 | Cn1cccc1C(=O)OCC(=O)NC1CCS(=O)(=O)C1 (stereo not drawn)
> 39.9 | Cc1ccc2c(c1)=C(c1ccccc1)N(O)CC(=O)N=2
37.8 (≈ 100 µM) | O=S(=O)(c1ccc(-c2ccon2)s1)N1CCN(c2ccncc2)CC1
> 36.1 | O=C(NC1CCCCC1)C(=S)N1CCCC1
26.4 (≈ 106 µM) | CC(C)Nc1c([N+](=O)[O-])c(=O)oc2ccccc12
> 50.6 | Cc1cccc(N2C(=O)CC(c3ccc(F)cc3)C3=C2COC3=O)c1 (stereo not drawn)
42.8 (≈ 119 µM) | CCOC(=O)C1(CC2CC2)CCN(Cc2ccc(C(=O)OC)cc2)CC1
11.7 | CC(C)(C)c1ccc(OCC(O)CN2CCc3ccccc3C2)cc1.Cl (stereo not drawn)
10.5 (≈ 40.6 µM) | S=c1[nH]c(-c2cccs2)cn1-c1ccccc1
41.1 (≈ 128 µM) | CSc1cccc(NS(=O)(=O)c2ccc(C(C)=O)cc2)c1
> 52.2 | COc1ccc(NC(=O)C(CC(=O)O)Cc2ccc(Cl)cc2)cc1 (stereo not drawn)
40.1 (≈ 117 µM) | Cc1ccccc1OCC(=O)NCC(c1ccco1)N1CCCCC1 (stereo not drawn)
17 (≈ 56.8 µM) | N/C(=N\OC(=O)C12CC3CC(CC(C3)C1)C2)c1ccncc1
